Measurements published in patent US10426758B2, “Sibiriline derivatives for use for preventing and/or treating disorders associated with cellular necroptosis” (Institut National de la Sante et de la Recherche Medicale …, priority 2015, dated 2019).

Columns and labels:
U937 cells = assay: Anti-necroptotic effect, U937 cells, TRAIL + zVAD, FACS of propidium iodide-stained nuclei; assay type: cell-based
Experimental: L929 cells, L929AsFas cells, Jurkat FADD-deficient cells (Jurkat FADD^−/−), U937 cells are pretreated for 1 h with increased concentrations of Sib (0, 5, 10, 20 μM) and then treated respectively with TNF-α (10 ng/ml)+zVAD (20 μM), FasL (200 ng/ml)+zVAD (20 μM), TNF-α (10 ng/ml), TRAIL (200 ng/ml)+zVAD (30 μM) or TRAIL (200 ng/ml)+zVAD (30 μM)+CHX (1 μg/ml). % of cell death is determined after 24 h and calculated by a FACS analysis of Propidium Iodide-stained nuclei. In each case, the EC50 is determined as well as the % of rescue from cell death.

DRAK2 = molecular target: T1, DRAK2 (Homo sapiens, UniProt O94768); assay: Competition binding assay for kinase targets of Sib (456 kinases); settings: remaining kinase on the matrix after competition, read-out: Percent Control (%)
T1 sequence (O94768 1-372): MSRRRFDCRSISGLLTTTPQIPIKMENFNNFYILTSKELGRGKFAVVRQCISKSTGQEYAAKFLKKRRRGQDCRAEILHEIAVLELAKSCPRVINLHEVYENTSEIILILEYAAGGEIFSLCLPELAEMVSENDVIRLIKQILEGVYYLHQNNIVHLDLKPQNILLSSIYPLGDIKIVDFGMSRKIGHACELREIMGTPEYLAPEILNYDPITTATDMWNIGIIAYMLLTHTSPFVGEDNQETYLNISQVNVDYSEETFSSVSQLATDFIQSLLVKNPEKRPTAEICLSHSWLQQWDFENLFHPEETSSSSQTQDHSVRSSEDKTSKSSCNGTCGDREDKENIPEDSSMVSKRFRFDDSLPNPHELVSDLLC
Experimental: (§1) The assay is performed by combining three components: DNA-tagged kinase (a total of 456 kinases were tested); immobilized ligand; and a test compound (here Sib). The ability of Sib to compete with the immobilized ligand is measured via quantitative PCR of the DNA tag.

EPHB6 = molecular target: T2, EPHB6 (Homo sapiens, UniProt O15197); assay: as above; settings: remaining kinase on the matrix after competition, read-out: Percent Control (%)
T2 sequence (O15197 32-1021): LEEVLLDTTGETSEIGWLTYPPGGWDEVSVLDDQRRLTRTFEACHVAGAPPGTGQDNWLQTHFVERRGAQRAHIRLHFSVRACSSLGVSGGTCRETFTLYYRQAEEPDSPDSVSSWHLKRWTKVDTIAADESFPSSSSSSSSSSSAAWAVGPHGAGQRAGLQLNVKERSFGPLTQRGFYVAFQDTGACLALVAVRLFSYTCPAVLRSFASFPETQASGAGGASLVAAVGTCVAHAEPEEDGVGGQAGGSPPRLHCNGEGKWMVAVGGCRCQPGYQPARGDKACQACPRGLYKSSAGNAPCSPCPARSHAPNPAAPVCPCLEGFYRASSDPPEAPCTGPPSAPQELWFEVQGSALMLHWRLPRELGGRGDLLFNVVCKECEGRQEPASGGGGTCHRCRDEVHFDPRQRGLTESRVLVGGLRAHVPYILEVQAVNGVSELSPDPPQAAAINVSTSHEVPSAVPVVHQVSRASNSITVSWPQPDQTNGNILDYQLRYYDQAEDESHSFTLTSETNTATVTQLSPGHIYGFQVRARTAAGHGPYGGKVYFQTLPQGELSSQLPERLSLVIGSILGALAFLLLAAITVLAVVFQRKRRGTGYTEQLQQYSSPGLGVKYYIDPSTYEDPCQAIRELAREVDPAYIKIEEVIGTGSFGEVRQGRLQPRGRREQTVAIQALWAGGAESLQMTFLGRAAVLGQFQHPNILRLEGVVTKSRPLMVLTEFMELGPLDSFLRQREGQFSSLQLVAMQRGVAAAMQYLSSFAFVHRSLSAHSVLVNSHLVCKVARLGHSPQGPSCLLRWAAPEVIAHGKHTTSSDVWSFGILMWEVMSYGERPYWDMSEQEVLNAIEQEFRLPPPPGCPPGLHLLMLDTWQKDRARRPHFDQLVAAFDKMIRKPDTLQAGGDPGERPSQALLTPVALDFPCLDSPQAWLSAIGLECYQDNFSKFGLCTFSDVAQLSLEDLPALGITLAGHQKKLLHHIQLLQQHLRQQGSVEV
Experimental: as §1

[1] = molecular target: T3, JAK2 (JH1domain-catalytic) (Homo sapiens, UniProt O60674); assay: as above; settings: remaining kinase on the matrix after competition, read-out: Percent Control (%)
T3 construct: JAK2(JH1domain-catalytic)
Experimental: as §1

[2] = molecular target: ABL1(H396P)-nonphosphorylated (Homo sapiens, UniProt P00519, H396P); assay: as above; settings: remaining kinase on the matrix after competition, read-out: Percent Control (%)
Experimental: as §1

KIT = KIT (Homo sapiens, UniProt P10721); assay: as above; settings: remaining kinase on the matrix after competition, read-out: Percent Control (%)
Experimental: as §1

AURKC = molecular target: T4, AURKC (Homo sapiens, UniProt Q9UQB9); assay: as above; settings: remaining kinase on the matrix after competition, read-out: Percent Control (%)
T4 sequence (Q9UQB9 1-309): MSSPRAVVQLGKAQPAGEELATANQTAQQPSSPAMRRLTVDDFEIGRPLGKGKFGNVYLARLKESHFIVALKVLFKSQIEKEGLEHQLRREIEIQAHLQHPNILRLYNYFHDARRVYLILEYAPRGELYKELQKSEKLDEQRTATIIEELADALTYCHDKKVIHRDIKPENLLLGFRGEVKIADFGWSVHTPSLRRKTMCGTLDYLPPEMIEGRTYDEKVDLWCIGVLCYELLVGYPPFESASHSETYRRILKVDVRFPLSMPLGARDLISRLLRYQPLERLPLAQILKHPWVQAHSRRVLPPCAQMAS
Experimental: as §1

T3 sequence (O60674 849-1124 limits assumed): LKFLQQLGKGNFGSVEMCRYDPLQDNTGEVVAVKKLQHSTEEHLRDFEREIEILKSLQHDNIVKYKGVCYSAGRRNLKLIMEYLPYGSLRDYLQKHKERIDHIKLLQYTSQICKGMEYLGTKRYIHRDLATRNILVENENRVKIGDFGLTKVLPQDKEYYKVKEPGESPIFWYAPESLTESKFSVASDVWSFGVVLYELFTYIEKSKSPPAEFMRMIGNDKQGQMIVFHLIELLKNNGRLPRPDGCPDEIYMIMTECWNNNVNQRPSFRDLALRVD
Sequence of KIT (P10721 26-976): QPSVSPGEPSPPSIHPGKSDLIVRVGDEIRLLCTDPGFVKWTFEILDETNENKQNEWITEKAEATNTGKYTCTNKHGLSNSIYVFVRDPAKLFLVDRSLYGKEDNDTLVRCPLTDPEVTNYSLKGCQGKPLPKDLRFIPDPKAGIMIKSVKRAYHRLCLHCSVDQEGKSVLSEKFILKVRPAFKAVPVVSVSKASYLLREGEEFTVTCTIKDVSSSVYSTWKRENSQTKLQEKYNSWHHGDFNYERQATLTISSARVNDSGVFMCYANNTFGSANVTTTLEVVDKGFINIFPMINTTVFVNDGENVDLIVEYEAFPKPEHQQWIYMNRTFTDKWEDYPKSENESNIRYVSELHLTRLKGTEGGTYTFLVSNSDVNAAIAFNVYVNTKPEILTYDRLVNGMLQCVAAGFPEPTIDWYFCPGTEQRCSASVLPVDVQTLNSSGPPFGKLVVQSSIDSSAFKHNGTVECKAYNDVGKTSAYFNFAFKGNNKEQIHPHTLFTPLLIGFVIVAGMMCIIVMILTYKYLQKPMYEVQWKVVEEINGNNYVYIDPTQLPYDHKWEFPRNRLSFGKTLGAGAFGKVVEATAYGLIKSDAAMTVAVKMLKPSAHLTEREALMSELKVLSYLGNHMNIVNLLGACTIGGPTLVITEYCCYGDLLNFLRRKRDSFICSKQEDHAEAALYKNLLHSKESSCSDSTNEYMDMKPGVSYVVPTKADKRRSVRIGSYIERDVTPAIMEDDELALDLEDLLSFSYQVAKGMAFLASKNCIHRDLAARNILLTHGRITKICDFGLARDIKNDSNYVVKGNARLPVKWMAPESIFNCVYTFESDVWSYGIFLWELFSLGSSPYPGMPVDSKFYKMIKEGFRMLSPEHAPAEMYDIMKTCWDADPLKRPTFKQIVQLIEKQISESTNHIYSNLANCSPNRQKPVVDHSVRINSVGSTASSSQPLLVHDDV

remaining binding at 10 µM (DRAK2): 0.75%
remaining binding at 10 µM (EPHB6): 0.65%
remaining binding at 10 µM [1]: 0.2%
remaining binding at 10 µM [2]: 1%
remaining binding at 10 µM (KIT): 0.8%
remaining binding at 10 µM (AURKC): 0.7%
SMILES: Oc1ccc(-c2cc3cccnc3[nH]2)cc1 [compound 2, 4-(1H-pyrrolo[2,3-b]pyridin-2-yl)phenol]
EC50 (U937 cells; Homo sapiens, U-937, 1 h pretreatment, cell death after 24 h): 4 µM
% Rescue (U937 cells; rescue from cell death, 24 h): 90%
